Molecules are shown by their SMILES.

In the first assay the target is T1, human B1R receptor (CHO K1 cells stably transfected with the human B1R gene) (Homo sapiens, UniProt P46663).
T1 construct: expressed in transfected cells; host or cells: CHO K1 cells (Chinese hamster ovary), stably transfected
T1 sequence (P46663 1-353): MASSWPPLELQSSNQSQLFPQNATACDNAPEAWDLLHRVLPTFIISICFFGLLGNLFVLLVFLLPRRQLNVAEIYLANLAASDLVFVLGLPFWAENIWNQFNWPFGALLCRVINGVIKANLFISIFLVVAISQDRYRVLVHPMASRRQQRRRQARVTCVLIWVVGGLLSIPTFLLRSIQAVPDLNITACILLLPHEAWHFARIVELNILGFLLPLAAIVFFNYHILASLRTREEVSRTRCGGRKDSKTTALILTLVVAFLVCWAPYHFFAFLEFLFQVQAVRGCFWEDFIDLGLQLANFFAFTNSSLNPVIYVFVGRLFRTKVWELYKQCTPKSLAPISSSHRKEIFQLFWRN
The assay can be described thus: Functional study on the bradykinin receptor 1 (B1R), Ca2+ fluorescence (Fluo-4) FLIPR/Novostar assay, hB1R cells. The assay is classed as cell-based. The conditions noted are these: CHO-K1, read-out: % Inhibition (h-B1R) at 10 μM. The procedure: The agonistic or antagonistic action of substances can be quantified on the bradykinin receptor 1 (B1R) of the species human and rat using ectopically expressing cell lines (CHO K1 cells) and with the aid of a Ca^2+-sensitive dye (Fluo-4) using a fluorescent imaging plate reader (FLIPR). The indication in % activation is based on the Ca^2+ signal after addition of Lys-Des-Arg^9-bradykinin (0.5 nM) or Des-Arg^9-bradykinin (100 nM). Antagonists lead to suppression of the Ca^2+ influx after the addition of the agonist. % Inhibition compared with the maximum achievable inhibition is indicated.
The agonistic or antagonistic action of substances can be determined on the bradykinin receptor 1 (B1R) of the species human and rat using the following assay. According to this assay, the increase in intracellular Ca^2+ following administration of a B1R agonist is quantified with the aid of a Ca^2+-sensitive dye (Fluo-4 type, Molecular Probes Europe BV, Leiden, Netherlands) using a Fluorescent Imaging Plate Reader (FLIPR, Molecular Devices, Sunnyvale, USA) and/or using a Novostar (BMG Labtech GmbH, Offenburg, Germany).
Chinese hamster ovary cells (CHO K1 cells) which have been stably transfected with the human B1R gene (hB1R cells) or with the B1R gene of the rat (rB1R cells) are used. For functional studies, the cells are plated out on black 96-well plates having a clear base (BD Biosciences, Heidelberg, Germany or Greiner, Frickenhausen, Germany) in a density of 20,000-35,000 cells/well. The cells are left overnight at 37° C. and with 5% CO2 in culture medium (hB1R cells: Nutrient Mixture Ham's F12, Gibco Invitrogen GmbH, Karlsruhe, Germany or DMEM, Sigma-Aldrich, Taufkirchen, Germany; rB1R cells: D-MEM/F12, Gibco Invitrogen GmbH, Karlsruhe, Germany), with 10 vol. % FBS (fetal bovine serum, Gibco Invitrogen GmbH, Karlsruhe, Germany or PAN Biotech GmbH, Aidenbach, Germany). On the following day, the cells are loaded for 60 minutes at 37° C. with 2.13 μM Fluo-4 (Molecular Probes Europe BV, Leiden, Netherlands) in HBSS buffer (Hank's buffered saline solution, Gibco Invitrogen GmbH, Karlsruhe, Germany) […] (Sigma-Aldrich, Taufkirchen, Germany) and 10 mM HEPES (Sigma-Aldrich, Taufkirchen, Germany). The plates are then washed twice with HBSS buffer, and HBSS buffer additionally containing 0.1% BSA (bovine serum albumin; Sigma-Aldrich, Taufkirchen, Germany), 5.6 mM glucose and 0.05% gelatin (Merck KGaA, Darmstadt, Germany) is added to the plates. After incubation for a further 20 minutes at room temperature, the plates are inserted into the FLIPR or Novostar for Ca^2+ measurement. Alternatively, washing is carried out with buffer A (15 mM HEPES, 80 mM NaCl, 5 mM KCl, 1.2 mM CaCl2, 0.7 mM MgSO4, 2 g/l glucose, 2.5 mM probenecid) followed by loading with buffer A with added 2.5 μM Fluo-4 and 0.025% Pluronic F127 (Sigma-Aldrich, Taufkirchen, Germany). The cells are then washed twice with buffer A and incubated for 30 minutes at room temperature with buffer A additionally containing 0.05% BSA and 0.05% gelatin and are then inserted into the FLIPR or Novostar for Ca^2+ measurement. The Ca^2+-dependent fluorescence is measured before and after the addition of substances (λex=488 nm, λem=540 nm). Quantification is carried out by measuring the highest fluorescence intensity (FC, fluorescence counts) over time.
The FLIPR protocol consists of 2 substance additions, which are pipetted in the FLIPR. In the case of measurements using the Novostar, only the second substance addition is pipetted in the device. Both devices measure the fluorescence intensity over time. Test substances (10 μM) are first pipetted onto the cells and the intracellular Ca^2+ increase is compared with the control (hB1R: Lys-Des-Arg^9-bradykinin>=50 nM; rB1R: Des-Arg^9-bradykinin>=1 μM). This gives the % activation, based on the Ca^2+ signal after addition of Lys-Des-Arg^9-bradykinin (>=50 nM) or Des-Arg^9-bradykinin (>=1 μM). […]
On to `Cc1cccc(C)c1C(=O)NC1CCc2ccc(C(=O)NCCC3CCN(c4ccncc4)CC3)cc21` (stereo not drawn) [CC_H-105, 3-[(2,6-Dimethyl-benzoyl)amino]-N-[2-(1-pyridin-4-yl-piperidin-4-yl)-ethyl]-2,3-dihydro-1H-indene-5-carboxylic acid amide], for which the inhibition at 10 µM turned out to be 90%.

With `Cc1cc(N2CCC(N(C)C(=O)c3ccc4c(c3)C(N(C)C(=O)c3cnccc3C(F)(F)F)CC4)CC2)cc(C)n1` (stereo not drawn) [CC_H-86, N-[6-[[1-(2,6-Dimethyl-pyridin-4-yl)-piperidin-4-yl]-methyl-carbamoyl]-2,3-dihydro-1H-inden-1-yl]-N-methyl-4-(trifluoromethyl)-pyridine-3-carboxylic acid amide], the inhibition at 10 µM stood at 95%.

Turning to `CN(C(=O)c1ccc2c(c1)C(NC(=O)C1CCCCC1)CC2)C1CCN(c2ccc3cnccc3c2)CC1` (stereo not drawn) [CC_H-77, 3-(Cyclohexanecarbonylamino)-N-(1-isoquinolin-6-yl-piperidin-4-yl)-N-methyl-2,3-dihydro-1H-indene-5-carboxylic acid amide], the inhibition at 10 µM stood at 99%.

`CN(C(=O)c1ccc2c(c1)C(NC(=O)c1c(Cl)cccc1C(F)(F)F)CC2)C1CCN(c2ccncc2)CC1` (stereo not drawn) [CC_H-137, 3-[[2-Chloro-6-(trifluoromethyl)-benzoyl]amino]-N-methyl-N-(1-pyridin-4-yl-piperidin-4-yl)-2,3-dihydro-1H-indene-5-carboxylic acid amide]: the inhibition at 10 µM was found to be 96%.

As for `Cc1cc(N2CCC(N(C)C(=O)c3ccc4c(c3)C(NC(=O)c3c(C)cccc3C)CC4)CC2)cc(C)n1` (stereo not drawn) [CC_H-115, 3-[(2,6-Dimethyl-benzoyl)amino]-N-[1-(2,6-dimethyl-pyridin-4-yl)-piperidin-4-yl]-N-methyl-2,3-dihydro-1H-indene-5-carboxylic acid amide], the inhibition at 10 µM stood at 99%.

As to `Cc1cc(N2CCC(N(C)C(=O)c3ccc4c(c3)C(N(C)S(=O)(=O)Cc3ccccc3C(F)(F)F)CC4)CC2)cc(C)n1` (stereo not drawn) [CC_H-129, N-[1-(2,6-Dimethyl-pyridin-4-yl)-piperidin-4-yl]-N-methyl-3-[methyl-[[2-(trifluoromethyl)-phenyl]-methylsulfonyl]-amino]-2,3-dihydro-1H-indene-5-carboxylic acid amide], the inhibition at 10 µM is 100%.

Regarding `Cc1cc(N2CCC(N(C)C(=O)c3ccc4c(c3)C(N(C)C(=O)CC(C)C)CC4)CC2)cc(C)n1` (stereo not drawn) [CC_H-90, N-[1-(2,6-Dimethyl-pyridin-4-yl)-piperidin-4-yl]-N-methyl-3-[methyl-(3-methyl-butanoyl)-amino]-2,3-dihydro-1H-indene-5-carboxylic acid amide], the inhibition at 10 µM came out at 100%.

For `CC(C)CC(=O)NC1CCc2ccc(C(=O)N(C)C3CCN(c4ccc5cnccc5c4)CC3)cc21` (stereo not drawn) [CC_H-79, N-(1-Isoquinolin-6-yl-piperidin-4-yl)-N-methyl-3-(3-methyl-butanoylamino)-2,3-dihydro-1H-indene-5-carboxylic acid amide], the inhibition at 10 µM came to 99%.

Turning to `CN(C(=O)c1ccc2c(c1)C(NS(=O)(=O)Cc1ccccc1C(F)(F)F)CC2(C)C)C1CCN(c2ccncc2)CC1` (stereo not drawn) [CC_H-89, N,1,1-Trimethyl-N-(1-pyridin-4-yl-piperidin-4-yl)-3-[[[2-(trifluoromethyl)-phenyl]-methylsulfonyl]amino]-2,3-dihydro-indene-5-carboxylic acid amide], the inhibition at 10 µM is 100%.

Regarding `Cc1cc(N2CCC(N(C)C(=O)c3ccc4c(c3)C(NC(=O)c3ccccc3Cl)CC4)CC2)cc(C)n1` (stereo not drawn) [CC_H-99, 3-[(2-Chloro-benzoyl)amino]-N-[1-(2,6-dimethyl-pyridin-4-yl)-piperidin-4-yl]-N-methyl-2,3-dihydro-1H-indene-5-carboxylic acid amide], the inhibition at 10 µM stood at 100%.

Still in this assay, the particulars now being: CHO-K1, read-out: % inhibition (human B1R) at 10 μM.
Take `CCN(C(=O)c1c(F)cccc1Cl)[C@@H]1CCc2ccc(C(=O)N(C)C3CCN(c4ccncc4)CC3)cc21` [Example H-220]: the inhibition at 10 µM was 99%.

As for `Cc1cc(N2CCC(N(C)C(=O)c3ccc4c(c3)[C@H](NS(=O)(=O)CC(C)C)CC4)CC2)nc(C)n1` [Example H-191, (3R)-N-[1-(2,6-Dimethyl-pyrimidin-4-yl)-piperidin-4-yl]-N-methyl-3-[(2-methyl-propylsulfonyl)amino]-2,3-dihydro-1H-indene-5-carboxylic acid amide], the inhibition at 10 µM came out at 100%.

As for `Cc1cc(N2CCC(N(C)C(=O)c3ccc4c(c3)[C@H](N(C)C(=O)C3CCCC3)CC4)CC2)nc(C)n1` [Example H-230, (3R)-3-(Cyclopentanecarbonyl-methyl-amino)-N-[1-(2,6-dimethyl-pyrimidin-4-yl)-piperidin-4-yl]-N-methyl-2,3-dihydro-1H-indene-5-carboxylic acid amide], the inhibition at 10 µM is 98%.

`CCN(C(=O)c1c(F)cccc1Cl)[C@@H]1CCc2ccc(C(=O)N(C)C3CCN(c4cc(C)nc(C)n4)CC3)cc21` [Example H-176]: the inhibition at 10 µM is 97%.

On to `CC(C)N(C(=O)c1ccc(F)cc1Cl)[C@@H]1CCc2cc(F)c(C(=O)N(C)C3CCN(c4ccncc4)CC3)cc21` [Example H-206, (3R)-3-[(2-Chloro-4-fluoro-benzoyl)-isopropyl-amino]-6-fluoro-N-methyl-N-(1-pyridin-4-yl-piperidin-4-yl)-2,3-dihydro-1H-indene-5-carboxylic acid amide], for which the inhibition at 10 µM was found to be 94%.

With `CCN(C(=O)c1ccc2c(c1)[C@H](NC(=O)c1ccccc1Cl)CC2)C1CCN(c2cc(C)nc(C)n2)CC1` [Example H-216, (3R)-3-[(2-Chloro-benzoyl)amino]-N-[1-(2,6-dimethyl-pyrimidin-4-yl)-piperidin-4-yl]-N-ethyl-2,3-dihydro-1H-indene-5-carboxylic acid amide], the inhibition at 10 µM came to 98%.

With `COc1cc(C(=O)N[C@@H]2CCc3ccc(C(=O)N(C)C4CCN(c5cc(C)nc(C)n5)CC4)cc32)on1` [Example H-224, N-[(1R)-6-[[1-(2,6-Dimethyl-pyrimidin-4-yl)-piperidin-4-yl]-methyl-carbamoyl]-2,3-dihydro-1H-inden-1-yl]-3-methoxy-isoxazole-5-carboxylic acid amide], the inhibition at 10 µM is 98%.

Regarding `CCN(C(=O)c1cccc(F)c1Cl)[C@@H]1CCc2ccc(C(=O)N(C)C3CCN(c4ccncc4)CC3)cc21` [Example H-203, (3R)-3-[(2-Chloro-3-fluoro-benzoyl)-ethyl-amino]-N-methyl-N-(1-pyridin-4-yl-piperidin-4-yl)-2,3-dihydro-1H-indene-5-carboxylic acid amide], the inhibition at 10 µM worked out at 100%.

The term inhibition denotes the relative decrease from the control value, in per cent.

Values taken from US8680159B2, “Bradykinin 1 receptor modulating compounds” (Gruenenthal GmbH, priority 2010, dated 2014).
